Source: paper PMC2904697, “A Screen for Kinetochore-Microtubule Interaction Inhibitors Identifies Novel Antitubulin Compounds” (PLoS ONE, 2010)
“And” between values parts separate entries of the source, which are not always exact repeats. Identical values can stand only once.

Key:
[1] = system: taxol-stabilized MTs; assay: Compound-based depolymerization of taxol-stabilized MTs in vitro; assay type: biochemical, bovine; conditions: compound 50 µmol/l; for Taxol-stabilized MT population depolymerized: taxol (20 µmol/l)-stabilized MTs
Procedure: To test this hypothesis, we treated HeLa cells with 0.5 µmol/l taxol, thereby arresting them in metaphase with stabilized spindles. […] To quantify the taxol-mediated inhibition of MT disassembly by compound B, we measured in vitro the depolymerization of taxol (20 µmol/l)-stabilized MTs following incubation with 50 µmol/l compound B (the screen condition). Nocodazole and maytansine (both at 50 µmol/l) were included as controls. At 50 µmol/l, compound B depolymerized 3% of the taxol-stabilized MT population, while nocodazole and maytansine depolymerized 11% and 31% of the taxol-treated MTs, respectively (Fig. 4B). […] This finding further supports our hypothesis that the interaction of compound B with the stabilized MTs must have prevented the Ndc80^488 complex from establishing contact with the MT surface.
(§1) MTs were polymerized (30 min, 37°C) from a 1∶10 mixture of rhodamine-labeled:unlabeled bovine brain αβ-tubulin (Cytoskeleton) in BRB-80 buffer (80 mmol/l PIPES pH 6.8, 1 mmol/l MgCl2, 1 mmol/l EGTA) and were then stabilized with 20 µmol/l taxol. The Ndc80^488 complex (0.1 µmol/l) was incubated with 100 µmol/l compound (30 min, 24°C) in 96-well polypropylene plates (Eppendorf). The 10,000 compound DIVERset library (Chembridge) and 200 compounds from the Department of Medicinal Chemistry and Technologies, University of Rome La Sapienza were used in the screen. Next, the MTs (100 nmol/l) were added to the compound-Ndc80^488 complex solution in a 1∶1 v/v ratio. After incubation (10 min, 24°C), the reaction mixtures were transferred to 96-well glass-bottom plates (Greiner Bio-one). Each well was imaged at 519 nm and 590 nm with an IX81 Olympus inverted wide-field microscope (Olympus). Total internal reflection fluorescence imaging was performed with an Olympus IX71 inverted wide-field microscope (Olympus). ImageJ was used for image processing (NIH, USA).
Taxol-stabilized MTs were prepared and diluted as described for the Ndc80^488 binding experiments. Varying compound concentrations in 10 µl of DMSO were added to 490 µl of diluted MTs at 37°C. Following incubation (30 min, 37°C), 450 µl of each mixture was centrifuged (10 min; 30,000 rpm; 37°C) in a Beckman Optima TLX centrifuge (TLA120.1 rotor). Pellets were dissolved in 25 µl of 8 mol/l urea, and the protein content of 20 µl was compared with that from pellets formed without compound.

[2] = biological target: recombinant human Ndc80 kinetochore complex binding to taxol-stabilized microtubules; assay: Ndc80^488 complex-MT binding assay (fluorescence microscopy / TIRF); conditions: for IC50: total internal reflection fluorescence microscopy, Ndc80^488 complex 0.1 µmol/l, taxol-stabilized MTs; for Effect on binding of the Ndc80^488 complex to taxol-stabilized MTs: compound 50 µmol/l, wide-field fluorescence microscopy
Description: To screen compound libraries for molecules inhibiting binding of the outer kinetochore Ndc80 complex (Ndc80, Nuf2, Spc24, Spc25) to MTs, we used a fluorescence microscopy-based in vitro approach (Fig. 1). First, the recombinant human Ndc80 construct, used to crystallize the complex, was produced in Escherichia coli using a bicistronic plasmid from which the Nuf2-Spc24 and Ndc80-Spc25 peptides were generated (Fig. 1A). Following their intracellular assembly, the complex was purified from E. coli cell extract based on the GST tag at the N-terminus of Nuf2. The complex was released in solution with PreScission Protease (its recognition sequence was introduced between the GST tag and the NUF2 coding sequence) and was separated from contaminants by gel filtration chromatography (Fig. 1A). The high degree of purity of the preparation was confirmed by SDS-PAGE analysis and coomassie staining, which identified only both peptides (Fig. 1B). Next, the Ndc80 complex was fluorescently labeled with the Alexa Fluor 488 C5-maleimide (next named the Ndc80^488 complex) and was separated from unreacted fluorophore by gel filtration chromatography. The final preparation was highly pure as evidenced by gel filtration analysis and detection at 519 nm (emission maximum of the Alexa Fluor 488 dye) and at 280 nm (intrinsic protein fluorescence) (Fig. 1B). Next, the Ndc80^488 complex (0.1 µmol/l) was incubated with 10,200 compounds (comprising the Chembridge DIVERset and a compound collection from the Univ. Rome) at a starting concentration of 50 µmol/l. Binding (or lack thereof) of the complex to rhodamine-labeled taxol-stabilized MTs (0.1 µmol/l) was scored by wide-field fluorescence microscopy (Fig. 1C; images in Fig. 2A). […] Total internal reflection fluorescence microscopy was used to establish the IC50 value of the compound, which was measured to be ∼20 µmol/l (Fig. 2C).
Recombinant human Ndc80 complex (Ndc80^Bonsai complex) was produced in Escherichia coli using a bicistronic expression plasmid (Fig. 1A, [12]). Following transcription from the TAC promoter/operator by induction with 0.4 mmol/l IPTG (20°C, 15 h), GST-Nuf2-Spc24 and Ndc80-Spc25 polypeptides were generated, which dimerized intracellulary into the GST-Ndc80 complex. The complex was isolated from E. coli cell extract following incubation with glutathione beads. The complex was released from the beads with PreScission Protease (GE Healthcare Life Sciences) and contaminants were removed by gel filtration chromatography (Superdex 200, GE Healthcare Life Sciences). On average 4 mg of Ndc80 complex were obtained from 1 liter of cell culture. Next, 1 mg Ndc80 complex was labeled with 0.1 mg Alexa Fluor 488 C5-maleimide fluorophore (Invitrogen) at a 1.5-2 stoichiometry. The fluorescent complex (Ndc80^488 complex) was separated from unreacted fluorophore by gel filtration chromatography (Fig. 1B) and was then used to screen for compounds inhibiting Ndc80^488 complex-MT binding (Fig. 1C). The Ndc80^488 complex is fully functional as it is recruited to and acts at kinetochores when injected into prometaphase HeLa cells.
as §1, with “Each well was imaged at 519 nm and 590 nm with an IX81 Olympus inverted wide-field microscope (Olympus). Total internal reflection fluorescence imaging was performed with an Olympus IX71 inverted wide-field microscope (Olympus). ImageJ was used for image processing (NIH, USA).” left out

Compound | Depolymerization of taxol-stabilized MTs [1] | IC50 [2] | Fold more active than compound B in the Ndc80^488 complex-MT binding assay ([2]; versus compound B) | Taxol-stabilized MT population depolymerized [1] | Effect on binding of the Ndc80^488 complex to taxol-stabilized MTs [2]
CCSCCOC(=O)c1[nH]c2c(c1C)C(=O)C[C@@H](c1ccco1)C2 [A8] | mildly depolymerized | ~1 µM and 1 µM | ~20 fold |  | 
Cc1c(C(=O)OCC2CCCO2)[nH]c2c1C(=O)CC(c1ccco1)C2 (centres unmarked) [compound B, 6-furan-2-yl-3-methyl-4-oxo-4,5,6,7,-tetrahydro-1H-indole-2-carboxylic acid tetrahydro-furan-2-ylmethyl ester] |  | ~20 µM and 20 µM |  | 3% | active
COC(=O)Nc1nc2ccc(C(=O)c3cccs3)cc2[nH]1 [nocodazole, reference compound] |  |  |  | 11% | did not prevent
